In ChEMBL document CHEMBL1201862, “PubChem BioAssay data set” (2004):
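Test compounds were applied to cells in 96-well plates for 48 hours at 5 doses. GI50 is the concentration that inhibits growth by half.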 Calls of active or inactive are those of the source. No stated cut-off is given here; in the data, active = GI50 up to about 1.1 µM and inactive = higher.

What was measured:
Assay in all cases: DTP human tumour cell line panel, 48 h
HT-29 = system: HT-29
NCI-H522 = system: NCI-H522
EKVX = system: EKVX
ACHN = system: ACHN
MDA-N = system: MDA-N
M14 = system: M14
RPMI-8226 = system: RPMI-8226
IGROV-1 = system: IGROV-1
SW-620 = system: SW-620
SN12C = system: SN12C
OVCAR-3 = system: OVCAR-3
RXF 393 = system: RXF 393
SNB-19 = system: SNB-19
HCT-116 = system: HCT-116
786-0 = system: 786-0
HCT-15 = system: HCT-15
SF-295 = system: SF-295
DU-145 = system: DU-145
SK-MEL-28 = system: SK-MEL-28
HOP-62 = system: HOP-62
MDA-MB-435 = system: MDA-MB-435
MOLT-4 = system: MOLT-4
SNB-75 = system: SNB-75
Hs-578T = system: Hs-578T
HL-60 = system: HL-60
SK-OV-3 = system: SK-OV-3
CCRF-CEM = system: CCRF-CEM
OVCAR-4 = system: OVCAR-4
UACC-62 = system: UACC-62
MDA-MB-231 = system: MDA-MB-231
SF-268 = system: SF-268
UACC-257 = system: UACC-257
T47D = system: T47D
KM12 = system: KM12
NCI-H460 = system: NCI-H460
NCI/ADR-RES = system: NCI/ADR-RES
SR = system: SR
SK-MEL-5 = system: SK-MEL-5
COLO 205 = system: COLO 205
A549 = system: A549
SF-539 = system: SF-539
MCF7 = system: MCF7
PC-3 = system: PC-3
HCC 2998 = system: HCC 2998
K562 = system: K562
TK-10 = system: TK-10
UO-31 = system: UO-31
NCI-H226 = system: NCI-H226
NCI-H23 = system: NCI-H23
BT-549 = system: BT-549
OVCAR-8 = system: OVCAR-8
U-251 = system: U-251
SK-MEL-2 = system: SK-MEL-2
Malme-3M = system: Malme-3M
CAKI-1 = system: CAKI-1
OVCAR-5 = system: OVCAR-5
LOX IMVI = system: LOX IMVI

## CCC1CCC2c3c([nH]c4ccccc34)C3C(=O)N(c4ccc(OC)cc4)C(=O)C3C2C1 (stereo not drawn)
HT-29
  GI50: 42.3 µM (inactive)
NCI-H522
  GI50: 77.6 µM (inactive)
EKVX
  GI50: 48.3 µM (inactive)
ACHN
  GI50: 39.8 µM (inactive)
MDA-N
  GI50: 55.7 µM (inactive)
M14
  GI50: 63 µM (inactive)
RPMI-8226
  GI50: 55 µM (inactive)
IGROV-1
  GI50: 64.1 µM (inactive)
SW-620
  GI50: 17.7 µM (inactive)
SN12C
  GI50: 68.9 µM (inactive)
OVCAR-3
  GI50: 22.3 µM (inactive)
RXF 393
  GI50: > 100 µM (inactive)
SNB-19
  GI50: 28.3 µM (inactive)
HCT-116
  GI50: 20 µM (inactive)
786-0
  GI50: > 100 µM (inactive)
HCT-15
  GI50: 35.1 µM
SF-295
  GI50: 26.8 µM (inactive)
DU-145
  GI50: > 100 µM (inactive)
SK-MEL-28
  GI50: 63.8 µM (inactive)
HOP-62
  GI50: 54.6 µM (inactive)
MDA-MB-435
  GI50: 55.5 µM (inactive)
MOLT-4
  GI50: 16.7 µM (inactive)
SNB-75
  GI50: 19.5 µM (inactive)
Hs-578T
  GI50: 22.2 µM (inactive)
HL-60
  GI50: 28.2 µM (inactive)
SK-OV-3
  GI50: 36.4 µM (inactive)
CCRF-CEM
  GI50: 11.1 µM (inactive)
OVCAR-4
  GI50: 14.9 µM (inactive)
UACC-62
  GI50: 61.8 µM (inactive)
MDA-MB-231
  GI50: 49.7 µM (inactive)
SF-268
  GI50: 52.5 µM (inactive)
UACC-257
  GI50: > 100 µM (inactive)
T47D
  GI50: 16.8 µM (inactive)
KM12
  GI50: 93.5 µM (inactive)
NCI-H460
  GI50: 30.4 µM (inactive)
NCI/ADR-RES
  GI50: 39.6 µM (inactive)
SR
  GI50: 16.1 µM (inactive)
SK-MEL-5
  GI50: > 100 µM (inactive)
COLO 205
  GI50: 74.1 µM (inactive)
A549
  GI50: 22.2 µM (inactive)
SF-539
  GI50: 34 µM (inactive)
MCF7
  GI50: 36.6 µM (inactive)
PC-3
  GI50: > 100 µM (inactive)
HCC 2998
  GI50: 91.2 µM (inactive)
K562
  GI50: 22 µM (inactive)
TK-10
  GI50: 28.2 µM (inactive)
UO-31
  GI50: > 100 µM (inactive)
NCI-H226
  GI50: > 100 µM (inactive)
NCI-H23
  GI50: > 100 µM (inactive)
BT-549
  GI50: > 100 µM (inactive)
OVCAR-8
  GI50: 27.1 µM (inactive)
U-251
  GI50: 18.7 µM (inactive)

## CC(Cc1ccc2c(c1)OCO2)N(C)C(=O)C1=CCN(C)CC1 (stereo not drawn)
HT-29
  GI50: > 100 µM (inactive)
NCI-H522
  GI50: > 100 µM (inactive)
EKVX
  GI50: > 100 µM (inactive)
SK-MEL-2
  GI50: > 100 µM (inactive)
ACHN
  GI50: > 100 µM (inactive)
MDA-N
  GI50: > 100 µM (inactive)
Malme-3M
  GI50: > 100 µM (inactive)
M14
  GI50: > 100 µM (inactive)
RPMI-8226
  GI50: > 100 µM (inactive)
IGROV-1
  GI50: > 100 µM (inactive)
SW-620
  GI50: > 100 µM (inactive)
SN12C
  GI50: > 100 µM (inactive)
OVCAR-3
  GI50: > 100 µM (inactive)
RXF 393
  GI50: > 100 µM (inactive)
SNB-19
  GI50: > 100 µM (inactive)
HCT-116
  GI50: > 100 µM (inactive)
786-0
  GI50: > 100 µM (inactive)
HCT-15
  GI50: > 100 µM
CAKI-1
  GI50: > 100 µM (inactive)
SF-295
  GI50: > 100 µM (inactive)
DU-145
  GI50: > 100 µM (inactive)
SK-MEL-28
  GI50: > 100 µM (inactive)
OVCAR-5
  GI50: > 100 µM (inactive)
HOP-62
  GI50: > 100 µM (inactive)
MDA-MB-435
  GI50: > 100 µM (inactive)
MOLT-4
  GI50: > 100 µM (inactive)
SNB-75
  GI50: 46.2 µM (inactive)
Hs-578T
  GI50: > 100 µM (inactive)
HL-60
  GI50: > 100 µM (inactive)
SK-OV-3
  GI50: > 100 µM (inactive)
CCRF-CEM
  GI50: > 100 µM (inactive)
OVCAR-4
  GI50: > 100 µM (inactive)
UACC-62
  GI50: > 100 µM (inactive)
LOX IMVI
  GI50: > 100 µM (inactive)
MDA-MB-231
  GI50: > 100 µM (inactive)
SF-268
  GI50: > 100 µM (inactive)
UACC-257
  GI50: > 100 µM (inactive)
T47D
  GI50: > 100 µM (inactive)
KM12
  GI50: > 100 µM (inactive)
NCI-H460
  GI50: > 100 µM (inactive)
NCI/ADR-RES
  GI50: > 100 µM (inactive)
SR
  GI50: > 100 µM (inactive)
SK-MEL-5
  GI50: > 100 µM (inactive)
COLO 205
  GI50: > 100 µM (inactive)
A549
  GI50: > 100 µM (inactive)
MCF7
  GI50: > 100 µM (inactive)
PC-3
  GI50: > 100 µM (inactive)
HCC 2998
  GI50: > 100 µM (inactive)
K562
  GI50: > 100 µM (inactive)
TK-10
  GI50: > 100 µM (inactive)
UO-31
  GI50: > 100 µM (inactive)
NCI-H226
  GI50: > 100 µM (inactive)
NCI-H23
  GI50: > 100 µM (inactive)
BT-549
  GI50: > 100 µM (inactive)
OVCAR-8
  GI50: > 100 µM (inactive)
U-251
  GI50: > 100 µM (inactive)
